According to patent publication US10064907B2, “Process to improve feed efficiency and carcass characteristics of animals” (Oligo Basics Agroindustrial LTDA., priority 2012, dated 2018):
Marks after values point to notes of the source that are not given here.

Assays:
[1] = Carcass characteristics of steers, Composition versus Monensin (Example 3); type: in vivo; settings: Monensin 223 mg/head/day, Composition 500 ppm in total feed, treatments differ P < 0.05
Protocol: The two groups were treated with Monensin (223 mg/head/day) and the Composition (500 ppm in total feed). Monensin is the antibiotic used in the industry as a standard to affect microbial populations in the rumen of the animals. The change in microbial populations in the rumen shifts the fermentation end products, which results in an improvement in the energy efficiency of the animal. By comparing the Composition to the industry standard, the effects due to changes in microbial populations can be deleted. Therefore, if differences were found between Monensin treated animals and the Composition treated animals, those differences would not arise from the antimicrobial effects, as both products inhibit the same type of bacteria (gram positive). The Composition was 40% cashew nut shell liquid, 12% castor oil and 48% expanded vermiculite. Dressing percent is the percentage of the carcass in relation to the total weight of the animal. Carcass quality grade goes from 1 to 9 to indicate, in increasing order, the amount of intramuscular fat. Meats with higher levels of intramuscular fat are more tender and, therefore, more expensive. Also, as the amount of energy found per unit of fat is twice as much as the amount of energy found per unit of carbohydrate and […], meats with more intramuscular fat are more energy dense than […]. […]

[2] = rats, supplemented vs non-supplemented animals; cited from earlier work

Row | Structure (SMILES) | Carcass quality grade ([1]; grade from 1 to 9, increasing intramuscular fat, steers fed from 322 kg to 617 kg) | Dressing percent (percentage of the carcass in relation to the total weight of the animal) ([1]; steers fed from 322 kg to 617 kg live weight) | effects on feed efficiency [2]
1 | CC[C@@]1([C@@H]2O[C@@H]([C@H]3O[C@@](O)(CO)[C@H](C)C[C@@H]3C)C[C@@H]2C)CC[C@H]([C@]2(C)CC[C@]3(C[C@H](O)[C@@H](C)[C@@H]([C@@H](C)[C@@H](OC)[C@H](C)C(=O)O)O3)O2)O1 [Monensin] | 3.18^a | 60^a percent | 
2 | CCCCCCCCCCCCCCCc1cccc(O)c1C(=O)O [anacardic acid] |  |  | no differences
